{"source": "paper PMC10689081", "about": "(BMB Reports, 2023)", "key": {"Mpro dimer": {"test_system": "Mpro dimer", "design": "species or system SARS-CoV-2"}, "Solubility in water": {"assay": "Solubility in water", "type": "physicochemical", "details": "Supplementary Fig. 4"}, "SARS-CoV-2 Mpro": {"test_system": "SARS-CoV-2 Mpro", "type": "biochemical"}, "[1]": {"details": "Superose-12 10/300, 0.5 ml/min, buffer D pH 7.5, 298 K (Fig. 1B)"}}, "note": "Entries after “also recorded” stand apart in the source; their conditions may differ."}
{"sequence": "SGFRKMAFPS [N10]", "values": [{"measurement": "disruption of dimer conformation (conclusion in words)", "setting": "Mpro dimer", "value": "disrupted the dimer conformation"}, {"measurement": "shift of Mpro dimer peak on adding N10", "setting": "Mpro dimer; Superose-12 10/300, 0.5 ml/min, 50 mM Tris-HCl pH 7.5, 1 M NaCl, 10% Glycerol, 1 mM DTT, 298 K (Fig. 1B)", "value": "shifted the Mpro dimer peak into a smaller size; also recorded: from dimer to a smaller size, a presumably monomer"}, {"measurement": "height of the delayed shifted peak compared to the original peak", "setting": "Mpro dimer; [1]", "value": "half-size in height"}, {"measurement": "shape of the peak of Mpro with N10", "setting": "Mpro dimer; [1]", "value": "overlapped shape of two peaks of primary and shoulder; also recorded: overlapped uneven two peaks of primary and shoulder"}, {"measurement": "solubility in water", "setting": "Solubility in water", "value": "soluble in water"}, {"measurement": "inhibition of Mpro activity (in words)", "setting": "SARS-CoV-2 Mpro; N10, 1 μM Mpro, 0-500 μM N10, 10 μM substrate, 298 K", "value": "also shows inhibitory activity; also recorded: can inhibit the Mpro activity; also recorded: could inhibit the proteolytic activity of Mpro"}, {"measurement": "inhibitory activity of N10 compared with GC376 (in words)", "setting": "SARS-CoV-2 Mpro; sub-millimolar concentrations (Fig. 2B)", "value": "weaker than that of GC376"}]}
